Earlier results as cited in US7981441B2, “Drug delivery systems using mesoporous oxide films” (The Board of Trustees of the Leland Stanford Junior …, priority 2004, dated 2011).

How the values were obtained:
[1] = 4 to six acrylate sleeves each loaded with 800 micrograms
[2] = test system: rabbit neointimal hyperplasia; conditions: pLA/pCL copolymer-coated stents containing 200 μg of paclitaxel; months after stent implantation
[3] = test system: porcine neointimal hyperplasia; conditions: bare stent, dip-coating; 0, 0.2, 15 and 187 μg/stent; at 4 weeks

SMILES | clinical outcome of study [1] | effect on rabbit neointimal hyperplasia [2] | effect on porcine neointimal hyperplasia [3]
CCCCCC(=O)O[C@H]1C[C@H]2OC[C@@]2(OC(C)=O)[C@H]2[C@H](OC(=O)c3ccccc3)[C@]3(O)C[C@H](OC(=O)[C@H](O)[C@@H](NC(=O)c4ccccc4)c4ccccc4)C(C)=C([C@@H](OC(C)=O)C(=O)[C@]12C)C3(C)C [7-hexanoyltaxol] | clinically unpromising |  | 
CC(=O)O[C@H]1C(=O)[C@@]2(C)[C@H]([C@H](OC(=O)c3ccccc3)[C@]3(O)C[C@H](OC(=O)[C@H](O)[C@@H](NC(=O)c4ccccc4)c4ccccc4)C(C)=C1C3(C)C)[C@]1(OC(C)=O)CO[C@@H]1C[C@@H]2O [paclitaxel] |  | virtually abolished | significant dose-dependent inhibition
